This is an account of results in ChEMBL document CHEMBL5576115, “Design and synthesis of chromene-1,2,3-triazole benzene sulfonamide hybrids as potent carbonic anhydrase-IX inhibitors against prostate cancer” (RSC Med Chem, 2024).

Each structure is given as a SMILES string. Active and inactive are the calls of the source. The calls are words filed in the database; no cut-off is given here.

In general, IC50 refers to the midpoint of a concentration-inhibition curve.

Series [1] concerns MCF7. The experiment in a line: Cytotoxicity against human MCF7 cells assessed as reduction in cell viability measured after 48 hrs by MTT assay. Conditions: MCF7, 48 h. Format: functional, cell-based. A general note: Formazan colour is commonly taken as a measure of viable cells.
In series [2] the test system is PC-3. The experiment in a line: Cytotoxicity against human PC-3 cells assessed as reduction in cell viability measured after 48 hrs by MTT assay. It is filed as functional, cell-based. The settings on record: PC-3, 48 h.
Series [3] has as its system MCF7. Briefly: Cytotoxicity against human MCF7 cells assessed as reduction in cell viability at 100 uM measured after 48 hrs by MTT assay. Format: functional, cell-based.
Series [4] can be described thus: Cytotoxicity against human WI-38 cells assessed as reduction in cell viability measured after 48 hrs by MTT assay. It is filed as toxicity, cell-based.
Series [5] deals with Carbonic anhydrase 9 (Homo sapiens, UniProt Q16790). Briefly: biochemical. Format: cell-based, Sf9.
Description: Inhibition of human C-terminal His-tagged CA-9 (59 to 414 residues) expressed in baculovirus infected Sf9 insect cells
For series [6], the system named is WI-38. Briefly: Cytotoxicity against human WI-38 cells assessed as cell death at 100 uM measured after 48 hrs by MTT assay relative to control. It is filed as toxicity, cell-based. Conditions: wi-38, 48 h.
Series [7] concerns PC-3. The experiment in a line: Cytotoxicity against human PC-3 cells assessed as reduction in cell viability at 100 uM measured after 48 hrs by MTT assay. It is filed as functional, cell-based.
Series [8] relates to PC-3. The experiment in a line: Cell cycle arrest in human PC-3 cells assessed as accumulation of cells at S phase at cytotoxic IC50 measured after 48 hrs by propidium iodide staining based flow cytometry (reference value: 19.81%). Format: functional.
Series [9] concerns PC-3. Briefly: Induction of apoptosis in human PC-3 cells assessed as accumulation of early apoptotic cells at cytotoxic IC50 measured after 48 hrs by Annexin-V-FITC/propidium iodide staining based flow cytometry relative to control. Format: functional.
The test system of series [10] is PC-3. The experiment in a line: Induction of apoptosis in human PC-3 cells assessed as accumulation of late apoptotic cells at cytotoxic IC50 measured after 48 hrs by Annexin-V-FITC/propidium iodide staining based flow cytometry relative to control. It is filed as functional. On the technique in general: A flow cytometer gives signals particle by particle.
Series [11] concerns PC-3. Briefly: Cell cycle arrest in human PC-3 cells assessed as accumulation of cells at G2/M phase at cytotoxic IC50 measured after 48 hrs by propidium iodide staining based flow cytometry (reference value: 12.75%). It is filed as functional.
Series [12] has as its system PC-3. Briefly: Induction of apoptosis in human PC-3 cells assessed as necrotic cells at cytotoxic IC50 measured after 48 hrs by Annexin-V-FITC/propidium iodide staining based flow cytometry (reference value: 1.61%). Format: functional.
The subject of series [13] is PC-3. The experiment in a line: Cell cycle arrest in human PC-3 cells assessed as accumulation of cells at G1 phase at cytotoxic IC50 measured after 48 hrs by propidium iodide staining based flow cytometry relative to control. Format: functional.

In the case of `Cc1cc(C)nc(NS(=O)(=O)c2ccc(-n3cc(COc4ccc5c(C)cc(=O)oc5c4)nn3)cc2)n1`, the IC50 stood at 97.5 µM in [1] and 9.98 µM in series [2].

`N=C(N)NS(=O)(=O)c1ccc(-n2cc(COc3cc(OCc4cn(-c5ccc(S(=O)(=O)NC(=N)N)cc5)nn4)c4c(-c5ccccc5)cc(=O)oc4c3)nn2)cc1`: in [3], the outcome was Active. The IC50 was found to be 19.1 µM in [1] and 14.6 µM in series [2].

Regarding `Cc1cc(=O)oc2c(C)c(OCc3cn(-c4ccc(S(=O)(=O)Nc5ncccn5)cc4)nn3)ccc12`, the IC50 in [1] amounted to 16.7 µM; in [2] it was 12.5 µM.

Regarding `Cc1cc(=O)oc2cc(OCc3cn(-c4ccc(S(=O)(=O)Nc5ncccn5)cc4)nn3)ccc12`, the IC50 in series [1] came to 41.4 µM; in series [2], 8.31 µM.

On to `O=c1cc(-c2ccccc2)c2c(OCc3cn(-c4ccc(S(=O)(=O)Nc5ncccn5)cc4)nn3)cc(OCc3cn(-c4ccc(S(=O)(=O)Nc5ncccn5)cc4)nn3)cc2o1`, for which the IC50 came out at 66.7 µM in series [1] and 11.6 µM in series [2].

On to `O=C(Cn1cc(COc2cc(OCc3cn(CC(=O)Nc4ccc(S(=O)(=O)Nc5ccccn5)cc4)nn3)c3c(-c4ccccc4)cc(=O)oc3c2)nn1)Nc1ccc(S(=O)(=O)Nc2ccccn2)cc1`, for which the IC50 at 48 h in series [4] turned out to be 46.6 µM. The figures for the IC50 in series [5], in series [1] and in series [2] were 0.214 µM, 57.2 µM and 5.52 µM, respectively. Besides, the Activity in series [6] is listed as 23.6%. Further, in series [7], the outcome was Active.

As for `Cc1cc(=O)oc2c(C)c(OCc3cn(CC(=O)Nc4ccc(S(=O)(=O)Nc5ccccn5)cc4)nn3)ccc12`, the values for the IC50 in series [1] and in [2] were 38.9 µM and 40.1 µM, respectively.

With `Cc1cc(C)nc(NS(=O)(=O)c2ccc(-n3cc(COc4ccc5c(C)cc(=O)oc5c4C)nn3)cc2)n1`, the IC50 worked out at 41.1 µM in [1] and 21.4 µM in [2].

Take `O=c1cc(-c2ccccc2)c2c(OCc3cn(-c4ccc(S(=O)(=O)Nc5ccccn5)cc4)nn3)cc(OCc3cn(-c4ccc(S(=O)(=O)Nc5ccccn5)cc4)nn3)cc2o1`: in series [4], the IC50 at 48 h came out at 46.6 µM. Further, the Activity in [8] came out at 15.29%; in series [6], 23.6%; in series [11], 9.36%; in series [12] it was 4.68%; in series [13] it was 31.9%. The “fold change (FC)” value is recorded as more than 18 in series [9] and 60 in series [10]. The figures for the IC50 in series [5], in series [1] and in series [2] were 0.113 µM, 18 µM and 2.08 µM, respectively. In series [7], the result was Active.

With `Cc1cc(=O)oc2cc(OCc3cn(-c4ccc(S(=O)(=O)N=C(N)N)cc4)nn3)ccc12`, the IC50 was determined as 76 µM in series [1] and 23.9 µM in [2].

With `COc1cccc2c1C(=O)c1c(O)c3c(c(O)c1C2=O)C[C@@](O)(C(=O)CO)C[C@@H]3O[C@H]1C[C@H](N)[C@H](O)[C@H](C)O1` [DOXORUBICIN], the IC50 in series [1] came to 3.41 µM; in [2], 2.31 µM.

Regarding `Cc1cc(C)nc(NS(=O)(=O)c2ccc(-n3cc(COc4cc(OCc5cn(-c6ccc(S(=O)(=O)Nc7nc(C)cc(C)n7)cc6)nn5)c5c(-c6ccccc6)cc(=O)oc5c4)nn3)cc2)n1`, the IC50 at 48 h in series [4] is 46.6 µM. Besides, the values for the IC50 in series [5], in series [1] and in series [2] were 0.134 µM, more than 100 µM and 7.57 µM, respectively. Moreover, in [6], the Activity is recorded as 23.6%. In series [7], the outcome was Active.

On to `Cc1cc(=O)oc2cc(OCc3cn(-c4ccc(S(=O)(=O)Nc5ccccn5)cc4)nn3)ccc12`, for which the IC50 turned out to be 32 µM in series [1] and 15.8 µM in series [2].

Consider `Cc1cc(=O)oc2cc(OCc3cn(CC(=O)Nc4ccc(S(=O)(=O)Nc5ccccn5)cc4)nn3)ccc12`, for which the outcome in series [3] was Active. For the same compound, the IC50 in [1] was determined as 17 µM; in series [2] it was 58.9 µM.

Consider `Cc1cc(=O)oc2c(C)c(OCc3cn(-c4ccc(S(=O)(=O)N=C(N)N)cc4)nn3)ccc12`, for which the IC50 came to 56.3 µM in [1] and 29.7 µM in series [2].

Consider `Cc1cc(=O)oc2c(C)c(OCc3cn(-c4ccc(S(=O)(=O)Nc5ccccn5)cc4)nn3)ccc12`, for which the outcome in series [3] was Active. Further, the IC50 amounted to 14.3 µM in [1] and 8.95 µM in [2].
